{"source": "patent US20200138907A1", "about": "“Composition for Use in the Treatment of an Individual Suffering a Condition Necessitating New Bone Formation” (priority 2016, published 2020)", "key": {"rabbits [1]": {"test_system": "rabbits", "assay": "bone induction in intramuscularly implanted BCP constructs without BMP-2, biomembrane pocket model", "format": "in vivo, rabbit", "settings": "TNF-α 1, 10, 100 ng, no BMP-2, intramuscular, 12 weeks", "description": "First, an assessment study was performed to verify the potential for ectopic bone formation in the biomembrane pocket model. […] The bone volume (area%) in the BCP constructs was the primary outcome after 8 (rats) or 12 (rabbits) weeks. Subsequently, the rabbit model (n=11) was used to 1) screen for the potential of inflammatory stimuli to induce bone intramuscularly and to 2) screen for the effects of inflammatory stimuli on BMP-induced bone formation subcutaneously. The bone volume (area%) in the BCP constructs was the primary outcome after 12 weeks.\nFibrin glue (Tissucol 500®, Baxter, Deerfield, Ill., USA) was subsequently used (55 μl volume) to load the inflammatory mediators onto the constructs. […]\nAfter shaving and disinfecting the skin with 10% povidone-iodine, a midline incision was made to expose the paraspinal muscles. […] The incorporation of fluorochromes in the bone was examined by fluorescence microscopy on methyl methacrylate-embedded sections. […]\nAfter retrieval of the constructs, a quarter of each sample was removed for decalcification and paraffin embedding. […] The samples were completely sectioned and scored for the presence of bone. Two mid-sections were pseudo-coloured in Adobe Photoshop CS6 (Adobe Systems, San Jose, USA) to quantify the percentage of bone in the available pore space (bone area %). […]"}, "rabbits [2]": {"test_system": "rabbits", "assay": "BMP-2 induced bone formation in subcutaneously implanted BCP constructs, biomembrane pocket model", "format": "in vivo, rabbit", "method": "For the comparative study (Table 2), inflammatory stimuli were added to the BCP, alone or in combination with BMP-2. Either 1.5 μg of BMP-2 or PBS (15 μl volume) was first applied. Fibrin glue (Tissucol 500®, Baxter, Deerfield, Ill., USA) was subsequently used (55 μl volume) to load the inflammatory mediators onto the constructs. For this purpose, the mediators were resuspended in 27.5 μl of the thrombin component (diluted 1:50 in PBS), then mixed with 27.5 μl of the fibrinogen component (diluted 1:30 in PBS) and immediately pipetted onto the BCP scaffolds. The control samples were treated with fibrin glue alone. The constructs were prepared on the day of surgery and stored in a humidified environment at 37° C. until implantation.\nAfter shaving and disinfecting the skin with 10% povidone-iodine, a midline incision was made to expose the paraspinal muscles. In the rabbits, four intramuscular pockets were created on each side by blunt dissection for implantation of the PMMA discs (FIG. 2B). The same discs were implanted in subcutaneous pockets via the same approach. Pockets were closed with a non-resorbable suture (Prolene®, Ethicon, USA), followed by closure of the skin (Monocryl®, Ethicon). At the second surgery, an incision was made in the membrane surrounding the PMMA disc, the disc was replaced by a BCP construct, and the opening was sutured (Prolene®, Ethicon). […] Fluorochrome labels were injected subcutaneously to determine the onset and location of new bone formation (van Gaalen et al., 2010): calcein green (10 mg/kg s.c. in 0.2 M NaHCO3, Sigma), oxytetracycline (25 mg/kg s.c. in 50/50 PBS/demineralised water, Merck Millipore, Billerica, USA) xylenol orange (30 mg/kg s.c. in 0.12 M NaHCO3, Sigma). The incorporation of fluorochromes in the bone was examined by fluorescence microscopy on methyl methacrylate-embedded sections. The rabbits were killed 12 weeks after the second surgery under general anesthesia, by intravenous Pentobarbital (Euthanimal®, Alfasan Nederland BV, Woerden, The Netherlands). The rats were killed with CO2, 8 weeks after the second surgery.\nAfter retrieval of the constructs, a quarter of each sample was removed for decalcification and paraffin embedding. The remaining material was fixed in 4% paraformaldehyde, dehydrated by an ethanol series and embedded in methyl methacrylate (MMA, Merck Millipore)."}}, "data": [{"substance": "TNF-α", "values": [{"measurement": "concentration dependence of bone induction", "setting": "rabbits [1]", "result": "no concentration dependence"}, {"measurement": "number of constructs with bone formation", "setting": "rabbits [1]", "result": 2, "unit": "constructs"}, {"measurement": "bone area %", "setting": "rabbits [2]; 10 ng TNF-α with 1.5 μg BMP-2, subcutaneous, 12 weeks, p=0.005 vs control", "result": "13.6±9.9", "unit": "area %"}, {"measurement": "4-week fluorochrome label (calcein) incorporation in bone", "setting": "rabbits [2]; BCP constructs with 1.5 μg BMP-2 and 10 ng TNF-α vs BMP-2 alone", "result": "observed less frequently"}, {"measurement": "8-week fluorochrome label (xylenol orange) incorporation in bone", "setting": "rabbits [2]; BCP constructs with 1.5 μg BMP-2 and 10 ng TNF-α vs BMP-2 alone, gross examination", "result": "more abundant"}, {"measurement": "effect on BMP-2 induced bone formation (in words)", "setting": "rabbits [2]; all doses, with 1.5 μg BMP-2, subcutaneous, 12 weeks", "result": "stimulatory effect"}, {"measurement": "bone formation at a higher concentration of TNF-α", "setting": "rabbits [2]; higher than 10 ng TNF-α, with 1.5 μg BMP-2, subcutaneous, 12 weeks", "result": "reduction of bone formation"}]}]}
